Results: paper PMC11478334, “Quaternized Curcumin Derivative—Synthesis, Physicochemical Characteristics, and Photocytotoxicity, Including Antibacterial Activity after Irradiation with Blue Light” (Molecules, 2024)

Key:
[1] = tested on: Pseudomonas aeruginosa NCTC 6749; experiment: In vitro photodynamic inactivation of planktonic cells, 470 nm LED; format: cell-based
Excerpt: (§1) The second experiment was designed to determine the time and concentration required to achieve the biological effect observed in the first experiment and to extend the study to other strains (Figure 12). Apart from S. aureus and E. coli, the Gram-positive Streptococcus pyogenes ATCC 19615, which is the etiologic agent of tonsillitis, and the Gram-negative Pseudomonas aeruginosa NCTC 6749, which is a major threat to hospitalized and immunocompromised patients due to its high antibiotic resistance, were used. The observed effect was strictly concentration-dependent (Table 6). According to the results, Gram-positive bacteria appear to be the most susceptible to the applied photocytotoxicity study. […] For S. pyogenes, the results were even more pronounced, as the complete eradication under the influence of compound 3 at a concentration of 10 µM occurred after only 5 min of irradiation, while at a concentration of 1 µM, complete eradication occurred after 15 min of irradiation. Interesting results were also obtained for Gram-negative bacteria. […] A high level of eradication of P. aeruginosa in the presence of compound 3 (10 µM) was observed after only 5 min of irradiation (log reduction: 4.29). […] Reductions in microbial survival were still observed with a decrease in compound concentration, but complete eradication was not achieved within the irradiation time.
(§2) The microorganisms used in the study were (i) standard strains of bacteria: Staphylococcus aureus NCTC 4163, Escherichia coli ATCC 25922, Pseudomonas aeruginosa NCTC 6749, and Streptococcus […] ATCC 19615, and (ii) fungi: Candida albicans ATCC 10231. The standard strains were obtained from the National Collection of Type Cultures (NCTC, Salisbury, UK) and the American Type Culture Collection (ATCC, Manassas, VA, USA). Bacterial and yeast strains were stored in Microbank cryogenic vials (Pro-Lab Diagnostics, Richmond Hill, ON, Canada) at −70 °C ± 10 °C. The bacteria were cultured aerobically in brain–heart infusion (BHI) broth (OXOID, Basingstoke, UK) at 36 °C ± 1 °C for 20 h. C. albicans cultures were grown in Sabouraud dextrose broth (SDB, Merck, Steinheim, Germany) at 36 °C for 20 h.
(§3) The organisms were harvested by centrifugation (3000× g for 15 min) and resuspended in 1.5 mL of 10 mM PBS, pH, 7.0 (Sigma-Aldrich, St. Louis, MO, USA). The cells were then diluted 1/100 in PBS to a final concentration of about 10^7 colony-forming units (CFUs)/mL. Aliquots (100 μL) of a standardized microbial suspension were placed in the wells of microtiter plates, and an equal volume of a solution of the tested compound was added to give final concentrations of 1 × 10^−5 (10 µM) and 1 × 10^−6 M (1 µM) (groups P+). Negative control wells contained the bacterial or yeast suspension and PBS without the photosensitizer (groups P−). All the samples were incubated in the dark for 20 min and irradiated by the LED panel at a distance of 10 mm for a specific period, depending on the experiment (groups L+). To evaluate the antimicrobial activity of the tested compounds, duplicate experimental samples were prepared but not irradiated (groups L−). Viable microorganisms were measured by counting the number of colony-forming units (CFUs) after appropriate serial dilution and culture on tryptic soy agar plates (TSA, OXOID, Basingstoke, UK) or Columbia Blood Agar with Sheep Blood (CAS, OXOID, Basingstoke, UK) for bacteria and Sabouraud dextrose agar (SDA, Merck, Steinheim, Germany) for fungi, following incubation at 36 °C ± 1 °C for 24–72 h. The number of surviving organisms and the log10 reduction in microbial cells for each sample were calculated using a formula available in the literature.
(§4) Lamp type—LED λmax~470 nm (LIU470A LED Array Light Source; Thorlabs Inc., Bergkirchen, Germany); irradiance—16.67 mW/cm^2 (measured with PM16-130 Power Meter, Thorlabs Inc., Bergkirchen, Germany, and Optel Opole Sp. z o.o., Opole, Poland).

[2] = tested on: Streptococcus pyogenes ATCC 19615; experiment: as above; format: cell-based; details: for irradiation time to complete eradication: 470 nm LED
Excerpt: as §1, §2, §3, §4

C. albicans = tested on: C. albicans; parameters: method as in PMID 22934533; details: 80 µM curcumin, 37.5 J/cm^2; mouse model of oral candidiasis; cited from earlier work
[3] = 1 µM, 15 min irradiation 470 nm
[4] = 10 µM, 5 min irradiation 470 nm (5 J/cm^2)

## F[B-]1(F)OC(/C=C/c2ccc(OCCN3CCOCC3)cc2)=CC(/C=C/c2ccc(OCCN3CCOCC3)cc2)=[O+]1 [Compound 2]
other
  melting point: 170 to 173 °C

## C[N+]1(CCOc2ccc(C=CC3=CC(C=Cc4ccc(OCC[N+]5(C)CCOCC5)cc4)=[O+][B-](F)(F)O3)cc2)CCOCC1 [Compound 3]
[1]; 1 µM, 5 min irradiation 470 nm
  Log Red.: 0.86 log
[1]; [3]
  Log Red.: 2.32 log
[1]; 1 µM, 25 min irradiation 470 nm
  Log Red.: 2.83 log
[1]; 1 µM, 30 min irradiation 470 nm (30 J/cm^2)
  Log Red.: 3.32 log
[1]; [4]
  Log Red.: 4.29 log
[1]; 10 µM, 15 min irradiation 470 nm
  Log Red.: 4.75 log
[1]; 10 µM, 25 min irradiation 470 nm (25 J/cm^2)
  Log Red.: >4.85 log
[2]; 1 µM, 5 min irradiation 470 nm (5 J/cm^2)
  Log Red.: 3.03 log
[2]; 1 µM
  irradiation time to complete eradication: 15 min
[2]; 1 µM, 10 min irradiation 470 nm
  Log Red.: 4.51 log
[2]; [3]
  Log Red.: >4.93 log
[2]; [4]
  Log Red.: >4.93 log
[2]; 10 µM
  irradiation time to complete eradication: 5 min

## Curcumin [reference compound]
C. albicans
  reduction in the survival of C. albicans: 4 log
